Literature values in patent US20060135540A1, “PPAR active compounds” (priority 2004, published 2006).

What was measured:
PPARδ = molecular target: T1, PPARδ (Homo sapiens, UniProt Q03181)
T1 sequence (Q03181 1-441): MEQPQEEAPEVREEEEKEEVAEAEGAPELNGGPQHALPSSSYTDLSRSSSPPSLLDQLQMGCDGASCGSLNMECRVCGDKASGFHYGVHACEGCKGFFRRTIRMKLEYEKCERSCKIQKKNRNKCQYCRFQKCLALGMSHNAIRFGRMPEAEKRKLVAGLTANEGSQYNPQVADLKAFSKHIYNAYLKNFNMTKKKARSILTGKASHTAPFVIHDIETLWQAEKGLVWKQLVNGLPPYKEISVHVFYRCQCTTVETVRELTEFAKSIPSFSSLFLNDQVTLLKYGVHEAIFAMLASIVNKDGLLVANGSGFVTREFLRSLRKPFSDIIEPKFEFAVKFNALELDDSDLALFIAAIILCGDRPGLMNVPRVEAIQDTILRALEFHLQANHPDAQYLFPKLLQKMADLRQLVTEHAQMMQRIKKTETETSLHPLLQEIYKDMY

murine PPARα = molecular target: T2, murine PPARα (Mus musculus, UniProt P23204)
T2 sequence (P23204 1-468): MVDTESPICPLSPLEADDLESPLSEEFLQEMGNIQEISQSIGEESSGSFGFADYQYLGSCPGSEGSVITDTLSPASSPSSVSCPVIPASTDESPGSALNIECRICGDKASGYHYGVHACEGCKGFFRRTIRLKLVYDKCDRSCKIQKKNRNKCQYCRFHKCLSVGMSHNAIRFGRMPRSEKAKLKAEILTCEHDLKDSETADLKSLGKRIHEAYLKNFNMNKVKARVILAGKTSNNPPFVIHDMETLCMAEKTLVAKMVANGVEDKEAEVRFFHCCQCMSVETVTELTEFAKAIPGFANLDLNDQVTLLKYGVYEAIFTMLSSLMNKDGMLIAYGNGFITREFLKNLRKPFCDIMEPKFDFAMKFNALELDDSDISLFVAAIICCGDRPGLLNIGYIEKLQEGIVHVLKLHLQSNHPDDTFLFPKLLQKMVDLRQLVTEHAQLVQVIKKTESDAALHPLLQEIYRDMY

[1] = patients, large prospective trial

| Compound | agonist selectivity for PPARδ over PPARγ (PPARδ) | activity on murine PPARα (murine PPARα) | reduction in cardiovascular events or death [1] [%] |
| --- | --- | --- | --- |
| CCCc1c(OCCCOc2ccc(OCC(=O)O)cc2)ccc(C(C)=O)c1O [Compound L-165041] | approximately 30 fold | inactive |  |
| Cc1ccc(C)c(OCCCC(C)(C)C(=O)O)c1 [gemfibrozil] |  |  | 22 |
